The target of assay [1] is T1, PSMA-expressing C4-2 cells (Homo sapiens, UniProt Q04609).
T1 construct: PSMA-expressing C4-2 cells (ATCC, Cat. No. CRL-3314) were cultured in RPMI-1640; host or cells: C4-2 cells
As to the kind of experiment: FACS binding assay (competition with 50 nM PSM-0183). Particulars: pIC50 category of FACS binding, C4-2 cells; read-out: pIC50 [C4-2] CAT (converted). The essentials:
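C4-2 cells were incubated 1 h at 4 °C with 50 nM AF488-labelled peptide PSM-0183 plus increasing test compound concentrations, then washed twice in ice-cold buffer. Median fluorescence in the AF488 channel was read by flow cytometry. IC50/pIC50 was derived by 4PL fitting of MFI versus concentration.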
Background: In flow cytometry, cells or beads pass a laser one at a time.

Assay [2] has as its target T2, Fc-fusion protein of human PSMA (hPSMA-Fc) (Homo sapiens, UniProt Q04609).
T2 construct: purchased Acro Biosystems PSA-H5264
As to the kind of experiment: Surface plasmon resonance assay (Biacore T200, single cycle kinetic). The class given is binding. Particulars: pKD category for PSMA SPR activity assay, hPSMA-Fc, 25° C.; read-out: pKD CAT (converted). In outline:
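hPSMA-Fc was captured (~1000 RU) on an Fc-binding-peptide CM5 chip, and compounds were run in single cycle kinetic mode at 25° C in HBST with 0.1% DMSO. Double-blank-corrected sensorgrams were fitted to a 1:1 Langmuir model to give KD, reported as pKD.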
(In general: Surface plasmon resonance follows binding to a sensor surface in real time, without labels.)

Experimental findings from US20260083865A1, “PROSTATE SPECIFIC MEMBRANE ANTIGEN (PSMA) LIGANDS AND USE THEREOF” (priority 2022, published 2026) are described below.

SMILES strings stand for the structures. Numbered stars: 1 amine (or outer) side, 2 acyl side, 3 side chain; on linkers, the order of the positions; unused ones are H or OH. Bridge positions count the residues as written; N and C are the ends. Square brackets hold non-standard residues; d marks the D form. Peptide text beside a SMILES is read from it. * marks the point of attachment. TtdsdLys(DOTA)NH2 = NC(=O)[C@@H](CCCCNC(=O)CN1CCN(CC(=O)O)CCN(CC(=O)O)CCN(CC(=O)O)CC1)NC(=O)CCC(=O)NCCCOCCOCCOCCCN*; X3 = O=C(O)CN1CCN(CC(=O)O)CCN(CC(=O)NCCCOCCOCCOCCCN*)CCN(CC(=O)O)CC1; DOTA = O=C(O)CN1CCN(CC(=O)O)CCN(CC(=O)*)CCN(CC(=O)O)CC1; Phe(3-Me) = Cc1cccc(C[C@H](N)C(=O)O)c1; Arg(Me) = CNC(=N)NCCC[C@H](N)C(=O)O; X1 = O=C(CC1CCN([*:1])CC1)[*:2]; Lys(Me) = CNCCCC[C@H](N)C(=O)O; Suc = O=C(CCC(=O)[*:2])[*:1]; Tle = CC(C)(C)[C@H](N)C(=O)O; Nle = CCCC[C@H](N)C(=O)O; Hexanoyl = CCCCCC(=O)*; AEEA = NCCOCCOCC(=O)O; Aib = CC(C)(N)C(=O)O

T1 sequence (Q04609 whole entry): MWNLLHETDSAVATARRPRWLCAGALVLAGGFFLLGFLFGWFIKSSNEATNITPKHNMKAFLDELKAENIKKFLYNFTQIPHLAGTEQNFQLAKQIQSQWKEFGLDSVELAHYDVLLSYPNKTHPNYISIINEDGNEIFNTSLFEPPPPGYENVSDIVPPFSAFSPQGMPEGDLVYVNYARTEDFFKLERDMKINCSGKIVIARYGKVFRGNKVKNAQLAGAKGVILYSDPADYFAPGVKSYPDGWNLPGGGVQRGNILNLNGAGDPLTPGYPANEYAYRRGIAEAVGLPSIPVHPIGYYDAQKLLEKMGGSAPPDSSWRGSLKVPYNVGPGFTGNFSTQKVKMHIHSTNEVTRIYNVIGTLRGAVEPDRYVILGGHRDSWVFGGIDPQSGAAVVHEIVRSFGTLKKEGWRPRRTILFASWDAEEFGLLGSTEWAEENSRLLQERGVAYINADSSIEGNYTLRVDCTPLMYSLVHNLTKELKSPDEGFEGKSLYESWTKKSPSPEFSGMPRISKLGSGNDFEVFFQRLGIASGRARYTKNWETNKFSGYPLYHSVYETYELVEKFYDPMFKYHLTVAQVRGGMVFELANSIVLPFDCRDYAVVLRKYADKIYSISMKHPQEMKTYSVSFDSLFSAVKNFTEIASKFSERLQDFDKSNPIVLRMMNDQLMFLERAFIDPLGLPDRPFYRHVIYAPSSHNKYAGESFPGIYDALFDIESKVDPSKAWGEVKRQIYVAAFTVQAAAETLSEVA
T2 sequence (Q04609 44-750 limits assumed): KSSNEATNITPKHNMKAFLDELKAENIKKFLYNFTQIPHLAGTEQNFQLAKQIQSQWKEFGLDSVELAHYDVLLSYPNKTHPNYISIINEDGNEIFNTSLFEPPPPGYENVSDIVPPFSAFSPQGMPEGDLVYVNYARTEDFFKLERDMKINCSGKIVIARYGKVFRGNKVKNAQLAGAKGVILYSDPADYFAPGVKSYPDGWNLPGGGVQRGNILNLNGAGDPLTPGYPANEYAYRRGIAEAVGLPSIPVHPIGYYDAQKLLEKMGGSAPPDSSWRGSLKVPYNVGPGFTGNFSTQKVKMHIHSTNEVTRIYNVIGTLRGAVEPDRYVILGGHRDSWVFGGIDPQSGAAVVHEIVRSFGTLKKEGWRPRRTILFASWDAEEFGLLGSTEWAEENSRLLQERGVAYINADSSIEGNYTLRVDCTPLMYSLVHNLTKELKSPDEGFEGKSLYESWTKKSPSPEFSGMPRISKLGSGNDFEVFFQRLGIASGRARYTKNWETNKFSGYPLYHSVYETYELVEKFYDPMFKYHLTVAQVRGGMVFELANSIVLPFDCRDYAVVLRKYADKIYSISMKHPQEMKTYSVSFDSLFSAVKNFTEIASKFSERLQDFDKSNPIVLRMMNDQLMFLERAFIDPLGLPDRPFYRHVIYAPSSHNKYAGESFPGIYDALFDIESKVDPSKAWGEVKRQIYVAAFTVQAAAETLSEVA

For the compound `CCCC[C@H](NC(=O)[C@@H]1CSSC[C@H](NC(=O)[C@H](Cc2ccccc2)NC(=O)C(C)(C)NC(=O)[C@@H](NC(C)=O)[C@@H](C)O)C(=O)N[C@@H](CCCCN)C(=O)N[C@@H](CCCNC(=N)N)C(=O)N[C@@H](C)C(=O)N[C@@H](CC(N)=O)C(=O)N1)C(=O)N[C@H](C(=O)N[C@@H](CC(=O)O)C(N)=O)[C@@H](C)O` [PSM-0501, Ac-Thr-Aib-Phe-[Cys-Lys-Arg-Ala-Asn-Cys]-Nle-Thr-Asp-NH2] (Ac-T[Aib]FCKRANC[Nle]TD-NH2; disulfide 4-9), the IC50 in assay [1] is less than 200 nM. Further, the Kd in assay [2] was less than 12.6 nM.

As to `CCCCCC(=O)N[C@H](C(=O)NC(C)(C)C(=O)N[C@@H](Cc1ccccc1)C(=O)N[C@H]1CSSC[C@@H](C(=O)N[C@H](C(=O)N[C@H](C(=O)N[C@@H](CC(=O)O)C(=O)NCCCOCCOCCOCCCNC(=O)CCC(=O)N[C@H](CCCCNC(=O)CN2CCN(CC(=O)O)CCN(CC(=O)O)CCN(CC(=O)O)CC2)C(N)=O)[C@@H](C)O)C(C)(C)C)NC(=O)[C@H](CC(N)=O)NC(=O)[C@H](C)NC(=O)[C@H](CCCNC(=N)N)NC(=O)[C@H](CCCCN)NC1=O)[C@@H](C)O` [PSM-0502, Hex-Thr-Aib-Phe-[Cys-Lys-Arg-Ala-Asn-Cys]-Tle-Thr-Asp-Ttds-lys(DOTA)-NH2] (Hexanoyl-T[Aib]FCKRANC[Tle]TD-{TtdsdLys(DOTA)NH2}; disulfide 4-9), in assay [1], the IC50 is less than 200 nM. The Kd in assay [2] is less than 12.6 nM.

For `CNCCCC[C@@H]1NC(=O)[C@@H](NC(=O)[C@H](Cc2cccc(C)c2)NC(=O)C(C)(C)NC(=O)[C@@H](NC(=O)CC2CCN(C(=O)CN3CCN(CC(=O)O)CCN(CC(=O)O)CCN(CC(=O)O)CC3)CC2)[C@@H](C)O)CSSC[C@@H](C(=O)N[C@H](C(N)=O)C(C)(C)C)NC(=O)[C@H](CC(N)=O)NC(=O)C(C)(C)NC(=O)[C@H](CCCNC(=N)NC)NC1=O` [PSM-0503, DOTA-Cmp-Thr-Aib-Mmf-[Cys-Lys(Me)-Arg(Me)-Aib-Asn-Cys]-Tle-NH2] ({DOTA}-[X1]T[Aib][Phe(3-Me)]C[Lys(Me)][Arg(Me)][Aib]NC[Tle]-NH2; disulfide 5-10), in assay [1], the IC50 was less than 200 nM. In assay [2], the Kd was 12.6 to 126 nM.

`CCCC[C@H](NC(=O)[C@@H]1CSSC[C@H](NC(=O)[C@H](Cc2ccccc2)NC(=O)[C@H](C)NC(=O)[C@@H](NC(=O)CCC(=O)NCCCOCCOCCOCCCNC(=O)CN2CCN(CC(=O)O)CCN(CC(=O)O)CCN(CC(=O)O)CC2)[C@@H](C)O)C(=O)N[C@@H](CCCCN)C(=O)N[C@@H](CCCNC(=N)N)C(=O)N[C@@H](C)C(=O)N[C@@H](CC(N)=O)C(=O)N1)C(=O)N[C@H](C(=O)N[C@@H](CC(=O)O)C(N)=O)[C@@H](C)O` [PSM-0504, DOTA-Ttds-Thr-Ala-Phe-[Cys-Lys-Arg-Ala-Asn-Cys]-Nle-Thr-Asp-NH2] ({X3-Suc}-TAFCKRANC[Nle]TD-NH2; disulfide 4-9): in assay [1], the IC50 is 200 to 1260 nM. Moreover, in assay [2], the Kd is 12.6 to 126 nM.

Turning to `C[C@@H](O)[C@H](NC(=O)[C@@H](NC(=O)[C@@H]1CSSC[C@H](NC(=O)[C@H](Cc2ccccc2)NC(=O)C(C)(C)NC(=O)[C@@H](NC(=O)COCCOCCNC(=O)CN2CCN(CC(=O)O)CCN(CC(=O)O)CCN(CC(=O)O)CC2)[C@@H](C)O)C(=O)N[C@@H](CCCCN)C(=O)N[C@@H](CCCNC(=N)N)C(=O)NC(C)(C)C(=O)N[C@@H](CC(N)=O)C(=O)N1)C(C)(C)C)C(N)=O` [PSM-0505, DOTA-020c-Thr-Aib-Phe-[Cys-Lys-Arg-Aib-Asn-Cys]-Tle-Thr-NH2] ({DOTA-AEEA}-T[Aib]FCKR[Aib]NC[Tle]T-NH2; disulfide 4-9), in assay [1], the IC50 was less than 200 nM. Besides, in assay [2], the Kd was less than 12.6 nM.

Turning to `CC(=O)NC(C)(C)C(=O)N[C@@H](Cc1ccccc1)C(=O)N[C@H]1CSSC[C@@H](C(=O)N[C@H](C(=O)N[C@H](C(=O)N[C@@H](CC(=O)O)C(N)=O)[C@@H](C)O)C(C)(C)C)NC(=O)[C@H](CC(N)=O)NC(=O)[C@H](C)NC(=O)[C@H](CCCNC(=N)N)NC(=O)[C@H](CCCCN)NC1=O` [PSM-0506, Ac-Aib-Pho-[Cys-Lys-Arg-Ala-Asn-Cys]-Tle-Thr-Asp-NH2] (Ac-[Aib]FCKRANC[Tle]TD-NH2; disulfide 3-8), in assay [1], the IC50 was less than 200 nM. Besides, in assay [2], the Kd is less than 12.6 nM.

For the compound `C[C@@H](O)[C@H](NC(=O)[C@@H](NC(=O)[C@@H]1CSSC[C@H](NC(=O)[C@H](Cc2ccccc2)NC(=O)C(C)(C)NC(=O)CC2CCN(C(=O)CN3CCN(CC(=O)O)CCN(CC(=O)O)CCN(CC(=O)O)CC3)CC2)C(=O)N[C@@H](CCCCN)C(=O)N[C@@H](CCCNC(=N)N)C(=O)NC(C)(C)C(=O)N[C@@H](CC(N)=O)C(=O)N1)C(C)(C)C)C(N)=O` [PSM-0507, DOTA-Cmp-Aib-Pho-[Cys-Lys-Arg-Aib-Asn-Cys]-Tle-Thr-NH2] ({DOTA}-[X1][Aib]FCKR[Aib]NC[Tle]T-NH2; disulfide 4-9), in assay [1], the IC50 is less than 200 nM. In assay [2], the Kd is 12.6 to 126 nM.
